This is an account of results in patent US20250236608A1, “EGFR INHIBITORS” (Blueprint Medicines Corporation, priority 2022, published 2025).

Broadly, the IC50 is the point on the concentration scale where inhibition reaches its midpoint.

Each structure is given as a SMILES string. Where a name gives a salt, the structure may show the parent alone.

For one assay, the target named is EGFR L858R (Homo sapiens (Human), UniProt P00533, L858R). Put plainly: Biochemical EGFR inhibition assay, EGFR L858R. The conditions noted are these: Caliper mobility shift; 1.0 mM ATP or ATP Km; read-out: Enz EGFR_L858R IC50.
In another assay the target is EGFR (d746-750) (Homo sapiens (Human), UniProt P00533, DEL746-750). In words: Biochemical EGFR inhibition assay, EGFR (d746-750). The conditions noted are these: Caliper mobility shift; 1.0 mM ATP or ATP Km; read-out: Enz EGFR_Exon19-del746-750 IC50.
Assay [1] deals with pEGFR (Tyr1068) in PC-9 cells (Ex19Del) (Homo sapiens (Human), UniProt P00533, DEL746-750). In words: PC-9 pEGFR AlphaLISA assay. The format is cell-based. The conditions noted are these: 4 hours incubation, p-EGFR (Tyr1068) AlphaLISA, read-out: Ext pEGFR_PC-9 Ex19Del IC50. The method in brief: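 PC-9 cells seeded overnight in phenol-free DMEM with 10% FBS, then treated 4 h at 37°C with a 10-point, 4-fold compound series. Lysates assayed for pEGFR Tyr1068 by AlphaLISA SureFire; IC50 from % inhibition vs log concentration.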
A general note: Bead proximity is the source of the signal in Alpha formats.

Chain of pEGFR (Tyr1068) in PC-9 cells (Ex19Del) (P00533 other isoform, or with tags, fused parts or gaps del 746-750): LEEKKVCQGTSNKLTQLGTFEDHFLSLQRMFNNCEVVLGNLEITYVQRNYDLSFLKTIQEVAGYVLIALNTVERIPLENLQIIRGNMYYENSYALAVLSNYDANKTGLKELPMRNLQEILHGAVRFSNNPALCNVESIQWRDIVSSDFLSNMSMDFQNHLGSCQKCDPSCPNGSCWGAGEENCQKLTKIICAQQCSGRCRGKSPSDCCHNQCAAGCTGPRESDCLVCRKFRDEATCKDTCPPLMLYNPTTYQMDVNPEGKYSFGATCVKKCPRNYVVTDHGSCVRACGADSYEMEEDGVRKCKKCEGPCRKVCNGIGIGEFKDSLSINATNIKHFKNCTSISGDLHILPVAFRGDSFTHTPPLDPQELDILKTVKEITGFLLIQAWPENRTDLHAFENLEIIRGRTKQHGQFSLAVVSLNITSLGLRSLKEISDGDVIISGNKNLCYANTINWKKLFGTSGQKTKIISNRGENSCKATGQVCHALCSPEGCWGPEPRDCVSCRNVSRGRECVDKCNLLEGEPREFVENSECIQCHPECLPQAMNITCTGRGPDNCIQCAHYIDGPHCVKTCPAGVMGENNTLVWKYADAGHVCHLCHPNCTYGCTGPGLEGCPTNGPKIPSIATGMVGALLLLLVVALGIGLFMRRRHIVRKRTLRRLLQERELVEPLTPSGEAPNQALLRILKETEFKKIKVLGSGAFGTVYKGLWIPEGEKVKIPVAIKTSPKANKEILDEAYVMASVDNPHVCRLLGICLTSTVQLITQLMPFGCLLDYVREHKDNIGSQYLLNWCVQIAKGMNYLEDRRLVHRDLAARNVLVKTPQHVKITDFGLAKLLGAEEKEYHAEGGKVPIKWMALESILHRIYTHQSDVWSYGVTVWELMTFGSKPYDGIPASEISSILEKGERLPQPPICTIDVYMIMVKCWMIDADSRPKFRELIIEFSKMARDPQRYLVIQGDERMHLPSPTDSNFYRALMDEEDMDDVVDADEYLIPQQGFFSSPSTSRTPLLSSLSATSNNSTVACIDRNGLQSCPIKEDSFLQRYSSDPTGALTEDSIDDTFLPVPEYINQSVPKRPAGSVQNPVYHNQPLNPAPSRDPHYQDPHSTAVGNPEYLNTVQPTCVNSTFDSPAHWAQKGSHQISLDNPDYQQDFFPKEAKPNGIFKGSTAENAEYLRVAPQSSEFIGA
Chain of EGFR (d746-750) (P00533 other isoform, or with tags, fused parts or gaps del 1-694/del 746-750 limits assumed): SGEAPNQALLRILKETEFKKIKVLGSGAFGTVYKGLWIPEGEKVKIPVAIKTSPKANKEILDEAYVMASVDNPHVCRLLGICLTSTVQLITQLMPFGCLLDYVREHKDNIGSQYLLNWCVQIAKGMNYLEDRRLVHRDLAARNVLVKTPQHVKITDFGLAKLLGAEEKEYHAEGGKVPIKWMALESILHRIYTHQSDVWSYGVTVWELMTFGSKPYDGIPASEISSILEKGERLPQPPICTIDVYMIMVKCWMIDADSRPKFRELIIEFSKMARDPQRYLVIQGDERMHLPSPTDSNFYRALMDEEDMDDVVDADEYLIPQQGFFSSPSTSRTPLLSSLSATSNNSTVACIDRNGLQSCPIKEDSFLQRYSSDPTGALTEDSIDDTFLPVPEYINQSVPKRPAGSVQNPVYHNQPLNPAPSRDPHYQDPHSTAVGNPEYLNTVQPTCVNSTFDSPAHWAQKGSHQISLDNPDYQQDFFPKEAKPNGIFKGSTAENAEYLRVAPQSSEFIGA
Chain of EGFR L858R (P00533 25-1210 L858R): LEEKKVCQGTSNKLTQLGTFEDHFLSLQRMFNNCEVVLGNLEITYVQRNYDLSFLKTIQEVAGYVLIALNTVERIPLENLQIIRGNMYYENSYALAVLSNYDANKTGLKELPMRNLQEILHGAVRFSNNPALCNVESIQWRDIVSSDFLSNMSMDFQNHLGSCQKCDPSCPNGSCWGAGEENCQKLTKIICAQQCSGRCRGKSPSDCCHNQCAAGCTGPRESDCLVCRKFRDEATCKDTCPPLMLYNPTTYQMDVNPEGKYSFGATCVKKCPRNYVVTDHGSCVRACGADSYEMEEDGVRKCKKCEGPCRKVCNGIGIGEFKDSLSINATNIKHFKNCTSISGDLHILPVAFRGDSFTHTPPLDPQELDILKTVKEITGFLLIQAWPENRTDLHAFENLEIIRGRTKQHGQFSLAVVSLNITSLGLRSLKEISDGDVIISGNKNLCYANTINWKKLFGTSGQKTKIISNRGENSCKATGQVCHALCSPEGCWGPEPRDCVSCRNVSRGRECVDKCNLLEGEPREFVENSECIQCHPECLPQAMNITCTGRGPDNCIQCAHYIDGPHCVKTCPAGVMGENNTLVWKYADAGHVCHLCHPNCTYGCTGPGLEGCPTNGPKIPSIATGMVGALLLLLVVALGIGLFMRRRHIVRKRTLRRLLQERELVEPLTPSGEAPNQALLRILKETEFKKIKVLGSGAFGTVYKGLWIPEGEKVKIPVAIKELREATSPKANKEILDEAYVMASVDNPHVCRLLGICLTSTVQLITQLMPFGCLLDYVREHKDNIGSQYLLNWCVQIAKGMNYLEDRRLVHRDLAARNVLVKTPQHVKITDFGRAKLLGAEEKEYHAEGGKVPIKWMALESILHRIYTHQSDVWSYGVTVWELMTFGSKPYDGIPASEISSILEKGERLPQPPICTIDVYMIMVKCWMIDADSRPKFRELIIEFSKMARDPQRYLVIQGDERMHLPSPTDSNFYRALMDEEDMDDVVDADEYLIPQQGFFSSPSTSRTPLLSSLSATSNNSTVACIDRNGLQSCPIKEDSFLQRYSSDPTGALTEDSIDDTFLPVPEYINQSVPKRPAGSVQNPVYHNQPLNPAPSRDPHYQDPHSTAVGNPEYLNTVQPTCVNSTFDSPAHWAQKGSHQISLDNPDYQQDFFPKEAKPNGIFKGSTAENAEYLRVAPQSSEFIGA

Regarding `COc1cc2ncnc(-c3cn(CC(F)F)nc3-c3ccccc3)c2cc1NC(=O)c1cccnc1` [Example 353, N-(4-(1-(2,2-difluoroethyl)-3-phenyl-1H-pyrazol-4-yl)-7-methoxyquinazolin-6-yl)nicotinamide], the IC50 at EGFR L858R was 2.3 nM; at EGFR (d746-750), 1.3 nM; in assay [1] it was 1.6 nM.

Regarding `Cn1cc(-c2ncnc3cc(OC(F)F)c(NC(=O)c4ccc(C5CC5)nc4)nc23)c(-c2ccccc2)n1` [Example 470, 6-cyclopropyl-N-[7-(difluoromethoxy)-4-(1-methyl-3-phenyl-1H-pyrazol-4-yl)pyrido[3,2-d]pyrimidin-6-yl]pyridine-3-carboxamide], the figures for the IC50 (at EGFR L858R; on EGFR (d746-750); in assay [1]) were 26 nM, 4.5 nM and 23.8 nM, respectively.

For `COc1cc2ncnc(-c3cn(C)nc3-c3ccccc3)c2cc1[C@@H]1CN(C)CCO1` [Example 130, (R)-2-(7-methoxy-4-(1-methyl-3-phenyl-1H-pyrazol-4-yl)quinazolin-6-yl)-4-methylmorpholine], the IC50 on EGFR L858R was determined as 21.5 nM; at EGFR (d746-750), 5.2 nM; in assay [1], 16.1 nM.

Regarding `CCOc1cc2ncnc(-c3cn(C)nc3-c3ccccc3)c2cc1OC1CCN(C(=O)CC)CC1` [Example 10, 1-(4-((7-ethoxy-4-(1-methyl-3-phenyl-1H-pyrazol-4-yl)quinazolin-6-yl)oxy)piperidin-1-yl) propan-1-one], the IC50 is 3.5 nM at EGFR L858R, 1.9 nM on EGFR (d746-750) and 2.8 nM in assay [1].

In the case of `COc1cc2ncnc(-c3cn(C)nc3-c3ccccc3)c2cc1C(O)C1CC1` (stereo not drawn) [Example 128, cyclopropyl (7-methoxy-4-(1-methyl-3-phenyl-1H-pyrazol-4-yl)quinazolin-6-yl)methanol], the IC50 at EGFR L858R is 3.6 nM; at EGFR (d746-750), 2.5 nM; in assay [1], 12.5 nM.

For the compound `COc1cc2ncnc(-c3cn(C)nc3-c3ccccc3)c2cc1NC(=O)[C@@H]1CCN(C)C[C@H]1F` (racemic) [Example 339, trans-rac-(3R,4R)-3-fluoro-N-(7-methoxy-4-(1-methyl-3-phenyl-1H-pyrazol-4-yl)quinazolin-6-yl)-1-methylpiperidine-4-carboxamide trifluoroacetate], the IC50 is 1.7 nM on EGFR L858R, 1 nM on EGFR (d746-750) and 0.8 nM in assay [1].

Turning to `COCc1cc2c(-c3cn(C)nc3-c3ccccc3)ncnc2cc1OC` [Example 120, 7-methoxy-6-(methoxymethyl)-4-(1-methyl-3-phenyl-1H-pyrazol-4-yl)quinazoline], the IC50 was 2.9 nM at EGFR L858R, 0.8 nM at EGFR (d746-750) and 7.3 nM in assay [1].

Regarding `COc1cc2ncnc(-c3cn(C)nc3-c3ccccc3)c2nc1-c1cccc2c1OCC(=O)N2` [Example 154, 8-(7-methoxy-4-(1-methyl-3-phenyl-1H-pyrazol-4-yl)pyrido[3,2-d]pyrimidin-6-yl)-2H-benzo[b][1,4]oxazin-3(4H)-one], the IC50 on EGFR L858R turned out to be 3.8 nM; at EGFR (d746-750), 1.1 nM; in assay [1] it was 13 nM.

Regarding `COc1cc2ncnc(-c3cn(C)nc3-c3ccccc3)c2cc1CO` [Example 119, (7-methoxy-4-(1-methyl-3-phenyl-1H-pyrazol-4-yl)quinazolin-6-yl)methanol], the IC50 worked out at 3.9 nM on EGFR L858R, 2.1 nM at EGFR (d746-750) and 13.6 nM in assay [1].

On to `CCOc1cc2ncnc(-c3cn(C(C)C)nc3-c3ccccc3)c2cc1CO` [Example 125, (7-ethoxy-4-(1-isopropyl-3-phenyl-1H-pyrazol-4-yl)quinazolin-6-yl)methanol], for which the IC50 came out at 1.4 nM at EGFR L858R, 0.9 nM on EGFR (d746-750) and 2.1 nM in assay [1].

`COc1cc2ncnc(-c3cn(C)nc3-c3ccccc3)c2cc1O[C@@H]1CN(C)C[C@@H]1F` [Example 5, 6-(((3R,4S)-4-fluoro-1-methylpyrrolidin-3-yl)oxy)-7-methoxy-4-(1-methyl-3-phenyl-1H-pyrazol-4-yl)quinazoline]: the IC50 on EGFR L858R amounted to 3 nM; at EGFR (d746-750), 2 nM; in assay [1], 4.6 nM.

Turning to `COc1cc2ncnc(-c3cn(C)nc3-c3ccccc3)c2nc1NC(=O)C12CC(C1)C2` [Example 309, N-(7-methoxy-4-(1-methyl-3-phenyl-1H-pyrazol-4-yl)pyrido[3,2-d]pyrimidin-6-yl)bicyclo[1.1.1]pentane-1-carboxamide], the figures for the IC50 (on EGFR L858R; at EGFR (d746-750); in assay [1]) were 3.1 nM, 1.9 nM and 2.8 nM, respectively.

Turning to `[2H]C([2H])([2H])Oc1cc2ncnc(-c3cn(C([2H])([2H])[2H])nc3-c3ccccc3)c2nc1NC(=O)C1(C(F)(F)F)CC1` [Example 486, N-(7-(methoxy-d3)-4-(1-(methyl-d3)-3-phenyl-1H-pyrazol-4-yl)pyrido[3,2-d]pyrimidin-6-yl)-1-(trifluoromethyl)cyclopropane-1-carboxamide], the IC50 on EGFR L858R worked out at 2.2 nM; on EGFR (d746-750), 0.7 nM; in assay [1], 1.5 nM.

As to `Cc1c(-c2ncnc3cc(-c4cnn(C)c4)ccc23)c(-c2ccccc2)nn1C` [Example 480, 4-(1,5-dimethyl-3-phenyl-1H-pyrazol-4-yl)-7-(1-methyl-1H-pyrazol-4-yl)quinazoline], the concentration for half-maximal inhibition (IC50) on EGFR L858R came out at 5.6 nM; at EGFR (d746-750) it was 4.4 nM; in assay [1] it was 69.1 nM.

On to `COc1cc2ncnc(-c3cn(C)nc3-c3ccccc3)c2cc1NC(=O)N1C[C@@H](C)OC[C@@H]1C` [Example 183, (2R,5S)-N-(7-methoxy-4-(1-methyl-3-phenyl-1H-pyrazol-4-yl)quinazolin-6-yl)-2,5-dimethylmorpholine-4-carboxamide], for which the IC50 at EGFR L858R worked out at 8 nM; on EGFR (d746-750), 3.6 nM; in assay [1], 10.7 nM.

On to `COc1cc2ncnc(-c3cn(CCN(C)C)nc3-c3ccccc3)c2cc1NC(=O)C12CC(C1)C2` [Example 308, N-(4-(1-(2-(dimethylamino)ethyl)-3-phenyl-1H-pyrazol-4-yl)-7-methoxyquinazolin-6-yl)bicyclo[1.1.1]pentane-1-carboxamide], for which the IC50 at EGFR L858R is 7.3 nM; at EGFR (d746-750), 3.5 nM; in assay [1], 6.1 nM.

Consider `COc1cc2ncnc(-c3cn(C)nc3-c3ccccc3)c2cc1OC(=O)N1CCN(C)[C@H]2C[C@H]21` (racemic) [Example 82, Cis-rac-7-methoxy-4-(1-methyl-3-phenyl-1H-pyrazol-4-yl)quinazolin-6-yl (1R,6S)-5-methyl-2,5-diazabicyclo[4.1.0]heptane-2-carboxylate], for which the IC50 on EGFR L858R came to 5.3 nM; at EGFR (d746-750), 3.3 nM; in assay [1], 3.9 nM.

Consider `COc1cc2ncnc(-c3cn(C)nc3-c3ccccc3)c2cc1OC(=O)N1[C@H](C)CNC[C@@H]1C` [Example 87, 7-methoxy-4-(1-methyl-3-phenyl-1H-pyrazol-4-yl)quinazolin-6-yl (2R,6S)-2,6-dimethylpiperazine-1-carboxylate], for which the IC50 on EGFR L858R is 4.9 nM; at EGFR (d746-750), 2.1 nM; in assay [1], 5.7 nM.

On to `COc1cc2ncnc(-c3cn(C)nc3-c3ccccc3)c2nc1OC(C)c1nnc(C)o1` (stereo not drawn) [Example 27, 2-(1-((7-methoxy-4-(1-methyl-3-phenyl-1H-pyrazol-4-yl)pyrido[3,2-d]pyrimidin-6-yl)oxy)ethyl)-5-methyl-1,3,4-oxadiazole], for which the IC50 amounted to 5.5 nM at EGFR L858R, 3 nM at EGFR (d746-750) and 8.1 nM in assay [1].

Regarding `COc1cc2ncnc(-c3cn(C)nc3-c3ccccc3)c2cc1NC(=O)c1cc2n(n1)CCCC2` [Example 225, N-(7-methoxy-4-(1-methyl-3-phenyl-1H-pyrazol-4-yl)quinazolin-6-yl)-4,5,6,7-tetrahydropyrazolo[1,5-a]pyridine-2-carboxamide], the figures for the IC50 (at EGFR L858R; at EGFR (d746-750); in assay [1]) were 14 nM, 9 nM and 5.1 nM, respectively.

For `CCn1cc(-c2ncnc3cc(OC)c(NC(=O)[C@@]45COC[C@@H]4C5)nc23)c(-c2ccccc2)n1` (single isomer, unassigned) [Example 389, (1R,5R)—N-(4-(1-ethyl-3-phenyl-1H-pyrazol-4-yl)-7-methoxypyrido[3,2-d]pyrimidin-6-yl)-3-oxabicyclo[3.1.0]hexane-1-carboxamide or (1S,5S)—N-(4-(1-ethyl-3-phenyl-1H-pyrazol-4-yl)-7-methoxypyrido[3,2-d]pyrimidin-6-yl)-3-oxabicyclo[3.1.0]hexane-1-carboxamide], the IC50 at EGFR L858R was found to be 6.4 nM; at EGFR (d746-750), 0.7 nM; in assay [1] it was 0.4 nM.

As for `COc1cc2ncnc(-c3cn(C)nc3-c3ccccc3)c2nc1NC(=O)[C@@]12C[C@@H]1CN(C)C2` (single isomer, unassigned) [Example 392, (1S,5S)—N-(7-methoxy-4-(1-methyl-3-phenyl-1H-pyrazol-4-yl)pyrido[3,2-d]pyrimidin-6-yl)-3-methyl-3-azabicyclo[3.1.0]hexane-1-carboxamide or (1R,5R)—N-(7-methoxy-4-(1-methyl-3-phenyl-1H-pyrazol-4-yl)pyrido[3,2-d]pyrimidin-6-yl)-3-methyl-3-azabicyclo[3.1.0]hexane-1-carboxamide], the IC50 was 6.1 nM at EGFR L858R, 2.2 nM at EGFR (d746-750) and 5.9 nM in assay [1].
